From ChEMBL document CHEMBL1770085, “Homodimeric bis-quaternary heterocyclic ammonium salts as potent acetyl- and butyrylcholinesterase inhibitors: a systematic investigation of the influence of linker and cationic heads over affinity and selectivity” (J Med Chem, 2011) come the findings set out here.

Assay [1] deals with T1, Acetylcholinesterase (Bos taurus, UniProt P23795).
T1 sequence (P23795 whole entry): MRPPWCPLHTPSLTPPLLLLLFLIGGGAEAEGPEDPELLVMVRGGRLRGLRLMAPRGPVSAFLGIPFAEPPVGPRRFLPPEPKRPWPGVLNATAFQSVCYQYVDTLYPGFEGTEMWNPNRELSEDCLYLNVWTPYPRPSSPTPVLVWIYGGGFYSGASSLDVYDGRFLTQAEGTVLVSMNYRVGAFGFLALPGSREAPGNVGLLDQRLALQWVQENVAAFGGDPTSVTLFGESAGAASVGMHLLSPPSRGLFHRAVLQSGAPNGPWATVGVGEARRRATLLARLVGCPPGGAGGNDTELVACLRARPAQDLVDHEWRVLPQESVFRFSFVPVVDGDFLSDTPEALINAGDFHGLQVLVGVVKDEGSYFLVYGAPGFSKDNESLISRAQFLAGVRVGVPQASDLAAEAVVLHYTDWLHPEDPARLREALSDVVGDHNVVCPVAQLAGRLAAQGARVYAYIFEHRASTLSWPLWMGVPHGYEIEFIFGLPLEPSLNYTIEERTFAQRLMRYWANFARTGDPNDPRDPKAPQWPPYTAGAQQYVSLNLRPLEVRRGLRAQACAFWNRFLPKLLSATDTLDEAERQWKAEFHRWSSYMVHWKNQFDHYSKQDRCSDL
Description: Inhibition of bovine AChE after 20 mins using acetylthiocholine iodide as a substrate by Ellman's assay

Assay [2] in a line: Selectivity index, ratio of IC50 for equine BChE to IC50 for bovine AChE.
For assay [3], the target named is Butyrylcholinesterase (Equus caballus, UniProt Q9N1N9).
Sequence of Butyrylcholinesterase (Q9N1N9 whole entry): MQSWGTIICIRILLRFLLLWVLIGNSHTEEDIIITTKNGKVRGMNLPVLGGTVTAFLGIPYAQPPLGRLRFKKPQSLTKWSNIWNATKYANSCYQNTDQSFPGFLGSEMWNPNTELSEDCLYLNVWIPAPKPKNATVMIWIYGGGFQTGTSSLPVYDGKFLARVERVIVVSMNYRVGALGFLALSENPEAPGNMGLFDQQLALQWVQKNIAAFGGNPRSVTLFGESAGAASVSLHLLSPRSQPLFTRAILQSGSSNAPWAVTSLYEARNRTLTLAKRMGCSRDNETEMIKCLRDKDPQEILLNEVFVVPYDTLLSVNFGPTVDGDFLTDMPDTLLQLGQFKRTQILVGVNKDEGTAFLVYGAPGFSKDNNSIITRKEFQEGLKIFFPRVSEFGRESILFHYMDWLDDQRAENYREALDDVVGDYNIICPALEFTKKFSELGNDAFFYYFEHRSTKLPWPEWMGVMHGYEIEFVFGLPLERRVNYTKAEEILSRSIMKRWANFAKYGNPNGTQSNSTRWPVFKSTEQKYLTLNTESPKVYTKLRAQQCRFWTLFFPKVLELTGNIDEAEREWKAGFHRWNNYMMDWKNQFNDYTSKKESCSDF
Description: Inhibition of equine BChE after 20 mins using butyrylthiocholine iodide as a substrate by Ellman's assay

In general, IC50 refers to the concentration needed to halve the response being measured.

`CN(c1ccc(Cl)cc1)c1cc[n+](Cc2cccc(-c3cccc(C[n+]4ccc(N(C)c5ccc(Cl)cc5)cc4)c3)c2)cc1`: the results for the IC50 in assay [1] and in assay [3] were 1780 nM and 496 nM, respectively. The Ratio IC50 in assay [2] came out at 0.28.

As to `COc1cc2c(cc1OC)CN(c1cc[n+](Cc3cccc(C[n+]4ccc(N5CCc6cc(OC)c(OC)cc6C5)cc4)c3)cc1)CC2`, the values for the IC50 in assay [1] and in assay [3] were 2100 nM and 890 nM, respectively. Besides, in assay [2], the Ratio IC50 amounted to 0.42.

On to `COc1cc2c(cc1OC)CN(c1cc[n+](Cc3cccc(-c4cccc(C[n+]5ccc(N6CCc7cc(OC)c(OC)cc7C6)cc5)c4)c3)cc1)CC2`, for which the values for the IC50 in assay [1] and in assay [3] were 519 nM and 1170 nM, respectively. Further, in assay [2], the Ratio IC50 was found to be 2.3.

As for `c1cc(C[n+]2ccc(N3CCCC3)cc2)ccc1C[n+]1ccc(N2CCCC2)cc1`, the IC50 in assay [1] came to 336 nM; in assay [3], 1300 nM. Also, in assay [2], the Ratio IC50 was found to be 3.9.

In the case of `c1cc(C[n+]2ccc(N3CCCCCC3)cc2)ccc1CCc1ccc(C[n+]2ccc(N3CCCCCC3)cc2)cc1`, the IC50 came to 86 nM in assay [1] and 274 nM in assay [3]. Further, the Ratio IC50 in assay [2] came out at 3.2.

With `Nc1cc[n+](Cc2ccc(CCc3ccc(C[n+]4ccc(N)c5ccccc54)cc3)cc2)c2ccccc12`, the results for the IC50 in assay [1] and in assay [3] were 672 nM and 620 nM, respectively. Further, the Ratio IC50 in assay [2] was 0.92.

Consider `Cc1c[n+](Cc2cccc(-c3cccc(C[n+]4cc(C)c(N)c5ccccc54)c3)c2)c2ccccc2c1N`, for which the IC50 in assay [1] stood at 497 nM; in assay [3] it was 59 nM. Moreover, the Ratio IC50 in assay [2] was found to be 0.12.

Take `c1cc(C[n+]2ccc(N3CCCC3)cc2)cc(-c2cccc(C[n+]3ccc(N4CCCC4)cc3)c2)c1`: the IC50 in assay [1] was found to be 39 nM; in assay [3] it was 518 nM. Moreover, the Ratio IC50 in assay [2] was 13.

`CN(c1cc[n+](Cc2cc(C[n+]3ccc(N(C)c4cc(Cl)cc(Cl)c4)cc3)cc(C[n+]3ccc(N(C)c4cc(Cl)cc(Cl)c4)cc3)c2)cc1)c1cc(Cl)cc(Cl)c1`: the IC50 turned out to be 1770 nM in assay [1] and 679 nM in assay [3]. In assay [2], the Ratio IC50 amounted to 0.38.

Take `c1cc(-c2ccc(C[n+]3ccc(N4CCCCC4)cc3)cc2)ccc1C[n+]1ccc(N2CCCCC2)cc1`: the IC50 in assay [1] turned out to be 160 nM; in assay [3], 430 nM. Further, the Ratio IC50 in assay [2] came to 2.7.

For `c1ccc2c(c1)CCN(c1cc[n+](Cc3ccc(-c4ccc(C[n+]5ccc(N6CCc7ccccc7C6)cc5)cc4)cc3)cc1)C2`, the IC50 came to 346 nM in assay [1] and 318 nM in assay [3]. In assay [2], the Ratio IC50 came to 0.92.

On to `OC1C[N+]2(Cc3ccc(/C=C/c4ccc(C[N+]56CCC(CC5)C(O)C6)cc4)cc3)CCC1CC2` (stereo not drawn), for which the values for the IC50 in assay [1] and in assay [3] were 141 nM and 5340 nM, respectively. In assay [2], the Ratio IC50 was found to be 38.

As to `c1ccc(-c2cc[n+](Cc3cccc(-c4cccc(C[n+]5ccc(-c6ccccc6)cc5)c4)c3)cc2)cc1`, the IC50 is 553 nM in assay [1] and 797 nM in assay [3]. Further, the Ratio IC50 in assay [2] turned out to be 1.4.

As to `c1cc(C[n+]2ccc(N3CCCC3)cc2)ccc1CCCc1ccc(C[n+]2ccc(N3CCCC3)cc2)cc1`, the IC50 was determined as 81 nM in assay [1] and 292 nM in assay [3]. Also, the Ratio IC50 in assay [2] was found to be 3.6.

As to `c1cc(C[n+]2ccc(N3CCCCC3)cc2)ccc1CCc1ccc(C[n+]2ccc(N3CCCCC3)cc2)cc1`, the results for the IC50 in assay [1] and in assay [3] were 79 nM and 130 nM, respectively. Besides, in assay [2], the Ratio IC50 worked out at 1.6.

`c1cc2cc(c1)C[n+]1ccc(cc1)NCc1ccc(cc1)CNc1cc[n+](cc1)C2`: the IC50 in assay [1] came out at 3900 nM; in assay [3] it was 850 nM. For the same compound, the Ratio IC50 in assay [2] was 0.22.

As to `COc1cc2c(cc1OC)CN(c1cc[n+](Cc3ccc(-c4ccc(C[n+]5ccc(N6CCc7cc(OC)c(OC)cc7C6)cc5)cc4)cc3)cc1)CC2`, the IC50 worked out at 94 nM in assay [1] and 1530 nM in assay [3]. For the same compound, the Ratio IC50 in assay [2] came to 16.

On to `c1cc(C[n+]2ccc(N3CCCCC3)cc2)cc(C[n+]2ccc(N3CCCCC3)cc2)c1`, for which the IC50 in assay [1] came out at 114 nM; in assay [3], 335 nM. Also, the Ratio IC50 in assay [2] came out at 2.9.

On to `OC1C[N+]2(Cc3ccc(CCc4ccc(C[N+]56CCC(CC5)C(O)C6)cc4)cc3)CCC1CC2` (stereo not drawn), for which the IC50 in assay [1] is 97 nM; in assay [3], 2090 nM. The Ratio IC50 in assay [2] stood at 22.

Regarding `CN(C)c1cc[n+](Cc2cccc(C[n+]3ccc(N(C)C)cc3)c2)cc1`, the results for the IC50 in assay [1] and in assay [3] were 390 nM and 7560 nM, respectively. For the same compound, in assay [2], the Ratio IC50 was 19.

Regarding `CN(c1cc[n+](Cc2ccc(C[n+]3ccc(N(C)c4cc(Cl)cc(Cl)c4)cc3)cc2)cc1)c1cc(Cl)cc(Cl)c1`, the values for the IC50 in assay [1] and in assay [3] were 5200 nM and 1600 nM, respectively. Besides, in assay [2], the Ratio IC50 was 0.31.

Turning to `c1cc(C[n+]2ccc(N3CCCC3)cc2)ccc1CCCCc1ccc(C[n+]2ccc(N3CCCC3)cc2)cc1`, the IC50 in assay [1] worked out at 104 nM; in assay [3] it was 671 nM. Also, in assay [2], the Ratio IC50 turned out to be 6.5.

In the case of `c1cc(C[n+]2ccc(N3CCCCC3)cc2)ccc1Cc1ccc(C[n+]2ccc(N3CCCCC3)cc2)cc1`, the results for the IC50 in assay [1] and in assay [3] were 83 nM and 62 nM, respectively. The Ratio IC50 in assay [2] came to 0.75.

As for `CN(c1cc[n+](Cc2ccc(-c3ccc(C[n+]4ccc(N(C)c5cc(Cl)cc(Cl)c5)cc4)cc3)cc2)cc1)c1cc(Cl)cc(Cl)c1`, the IC50 in assay [1] stood at 2870 nM; in assay [3], 550 nM. The Ratio IC50 in assay [2] came out at 0.19.

As to `CN(C)c1cc[n+](C[C@@H]2C[C@H]2C[n+]2ccc(N(C)C)cc2)cc1` (relative stereo), the IC50 in assay [1] is 8780 nM.

Turning to `c1cc(C[n+]2ccc(N3CCCC3)cc2)ccc1CCc1ccc(C[n+]2ccc(N3CCCC3)cc2)cc1`, the IC50 in assay [1] worked out at 385 nM; in assay [3], 735 nM. Moreover, in assay [2], the Ratio IC50 is 1.9.

For `COc1cc2c(cc1OC)CN(c1cc[n+](Cc3ccc(C[n+]4ccc(N5CCc6cc(OC)c(OC)cc6C5)cc4)cc3)cc1)CC2`, the figures for the IC50 in assay [1] and in assay [3] were 1950 nM and 1370 nM, respectively. Besides, the Ratio IC50 in assay [2] was 0.7.

For the compound `c1cc(C[n+]2ccc(N3CCCC3)cc2)ccc1Cc1ccc(C[n+]2ccc(N3CCCC3)cc2)cc1`, the IC50 in assay [1] is 183 nM; in assay [3], 576 nM. In assay [2], the Ratio IC50 came to 3.1.

With `c1cc(C[n+]2ccc(N3CCCCCC3)cc2)ccc1CCCc1ccc(C[n+]2ccc(N3CCCCCC3)cc2)cc1`, the IC50 in assay [1] is 202 nM; in assay [3] it was 163 nM. For the same compound, in assay [2], the Ratio IC50 amounted to 0.81.

Compound `CN(C)c1cc[n+](Cc2ccc(C[n+]3ccc(N(C)C)cc3)cc2)cc1` registered an IC50 in assay [1] of 1310 nM. Besides, in assay [2], the Ratio IC50 was 7.6.

`c1ccc(C[n+]2ccc(N3CCCC3)cc2)cc1` showed an IC50 in assay [1] of 5530 nM.

For the compound `CN(C)c1cc[n+](Cc2ccc(CCCCc3ccc(C[n+]4ccc(N(C)C)cc4)cc3)cc2)cc1`, the figures for the IC50 in assay [1] and in assay [3] were 252 nM and 372 nM, respectively. Also, in assay [2], the Ratio IC50 stood at 1.5.

Take `CN(c1ccc(Cl)cc1)c1cc[n+](Cc2ccc(-c3ccc(C[n+]4ccc(N(C)c5ccc(Cl)cc5)cc4)cc3)cc2)cc1`: the IC50 came to 3070 nM in assay [1] and 683 nM in assay [3]. Also, the Ratio IC50 in assay [2] was found to be 0.22.

In the case of `C(=C\c1ccc(C[n+]2ccc(N3CCCCC3)cc2)cc1)/c1ccc(C[n+]2ccc(N3CCCCC3)cc2)cc1`, the IC50 amounted to 582 nM in assay [1] and 247 nM in assay [3]. Besides, the Ratio IC50 in assay [2] was 0.42.

For `CN(c1ccccc1)c1cc[n+](Cc2cccc(C[n+]3ccc(N(C)c4ccccc4)cc3)c2)cc1`, the IC50 was determined as 1150 nM in assay [1] and 910 nM in assay [3]. Further, in assay [2], the Ratio IC50 is 0.79.

In the case of `c1cc(-c2ccc(C[n+]3ccc(N4CCCC4)cc3)cc2)ccc1C[n+]1ccc(N2CCCC2)cc1`, the IC50 in assay [1] came to 90 nM; in assay [3] it was 1270 nM. Moreover, the Ratio IC50 in assay [2] came out at 14.

Take `c1cc(C[n+]2ccc(N3CCc4ccccc4C3)cc2)cc(C[n+]2ccc(N3CCc4ccccc4C3)cc2)c1`: the IC50 in assay [1] came to 281 nM; in assay [3] it was 190 nM. In assay [2], the Ratio IC50 turned out to be 0.68.

As to `CN(C)c1cc[n+](Cc2cc(C[n+]3ccc(N(C)C)cc3)cc(C[n+]3ccc(N(C)C)cc3)c2)cc1`, the IC50 in assay [1] turned out to be 2750 nM. In assay [2], the Ratio IC50 amounted to 3.6.

Regarding `c1cc(C[n+]2ccc(N3CCOCC3)cc2)ccc1CCc1ccc(C[n+]2ccc(N3CCOCC3)cc2)cc1`, the IC50 in assay [1] was 2670 nM; in assay [3], 4480 nM. Besides, the Ratio IC50 in assay [2] was found to be 1.7.

In the case of `c1cc(C[n+]2ccc(N3CCCCC3)cc2)ccc1CCCc1ccc(C[n+]2ccc(N3CCCCC3)cc2)cc1`, the IC50 in assay [1] is 163 nM; in assay [3], 149 nM. Further, in assay [2], the Ratio IC50 was found to be 0.91.

On to `CN(C)c1cc[n+](Cc2ccc(CCc3ccc(C[n+]4ccc(N(C)C)cc4)cc3)cc2)cc1`, for which the IC50 was found to be 628 nM in assay [1] and 1360 nM in assay [3]. The Ratio IC50 in assay [2] was 2.2.

Turning to `c1cc(C[n+]2ccc(NC3CCCCC3)cc2)ccc1CCCCc1ccc(C[n+]2ccc(NC3CCCCC3)cc2)cc1`, the results for the IC50 in assay [1] and in assay [3] were 100 nM and 206 nM, respectively. Further, in assay [2], the Ratio IC50 is 2.1.

Turning to `Cc1c2c(C)c3c(C)c1C[n+]1ccc(cc1)NCc1cc(cc(c1)CNc1cc[n+](cc1)C3)CNc1cc[n+](cc1)C2`, the IC50 worked out at 3680 nM in assay [1] and 516 nM in assay [3]. For the same compound, the Ratio IC50 in assay [2] was determined as 0.14.
